Measured values reported in publication PMC6891286, “Towards the Development of an In vivo Chemical Probe for Cyclin G Associated Kinase (GAK)” (Molecules, 2019).

Columns and labels:
Test in all cases: KINOMEscan
Type in all cases: binding
Details in all cases: 35 at 1 µM; read-out: % inhibition
[1] = molecular target: T1, PLK4 (Homo sapiens, UniProt O00444)
T1 construct: purchased Eurofins DiscoverX (KINOMEscan)
Experimental: (§1) KinomeScan Assay on 35 was performed as previously described at EuroFins DiscoverX (Fremont, CA, USA).

[2] = molecular target: T2, DCAMKL3 (Homo sapiens, UniProt Q9C098)
T2 construct: purchased Eurofins DiscoverX (KINOMEscan)
Experimental: as §1

[3] = molecular target: T3, FES (Homo sapiens, UniProt P07332)
T3 construct: purchased Eurofins DiscoverX (KINOMEscan)
Experimental: as §1

[4] = molecular target: T4, TYRO3 (Homo sapiens, UniProt Q06418)
T4 construct: purchased Eurofins DiscoverX (KINOMEscan)
T4 sequence (Q06418 41-890): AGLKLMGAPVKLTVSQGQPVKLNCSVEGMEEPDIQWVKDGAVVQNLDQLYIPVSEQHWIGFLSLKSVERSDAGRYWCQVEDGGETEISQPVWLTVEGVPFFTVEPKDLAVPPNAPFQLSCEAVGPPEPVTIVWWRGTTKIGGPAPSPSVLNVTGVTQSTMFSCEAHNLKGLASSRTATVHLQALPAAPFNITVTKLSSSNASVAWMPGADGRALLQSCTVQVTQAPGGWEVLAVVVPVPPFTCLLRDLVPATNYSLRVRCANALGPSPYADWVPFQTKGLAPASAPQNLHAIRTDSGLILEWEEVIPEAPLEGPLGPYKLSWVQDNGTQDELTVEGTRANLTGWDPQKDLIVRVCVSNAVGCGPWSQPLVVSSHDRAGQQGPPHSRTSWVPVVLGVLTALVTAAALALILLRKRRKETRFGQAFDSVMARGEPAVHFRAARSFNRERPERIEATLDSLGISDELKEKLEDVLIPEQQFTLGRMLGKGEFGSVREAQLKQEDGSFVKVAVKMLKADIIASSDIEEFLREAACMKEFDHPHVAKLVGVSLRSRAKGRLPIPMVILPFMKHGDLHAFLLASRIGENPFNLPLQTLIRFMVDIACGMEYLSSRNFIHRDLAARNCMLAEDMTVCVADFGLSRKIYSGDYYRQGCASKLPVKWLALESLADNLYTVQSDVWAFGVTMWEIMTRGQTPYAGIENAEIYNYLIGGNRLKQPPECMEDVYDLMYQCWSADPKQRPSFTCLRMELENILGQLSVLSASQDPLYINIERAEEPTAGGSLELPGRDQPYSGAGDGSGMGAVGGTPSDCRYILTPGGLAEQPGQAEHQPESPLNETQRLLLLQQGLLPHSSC
Experimental: as §1

[5] = molecular target: T5, NEK11 (Homo sapiens, UniProt Q8NG66)
T5 construct: purchased Eurofins DiscoverX (KINOMEscan)
Experimental: as §1

[6] = molecular target: T6, WNK1 (Homo sapiens, UniProt Q9H4A3)
T6 construct: purchased EuroFins DiscoverX (Fremont, CA, USA)
Experimental: as §1

[7] = molecular target: T7, AURKC (Homo sapiens, UniProt Q9UQB9)
T7 construct: purchased Eurofins DiscoverX (KINOMEscan)
Experimental: as §1

[8] = molecular target: T8, MAP4K2 (Homo sapiens, UniProt Q12851)
T8 construct: purchased Eurofins DiscoverX (KINOMEscan)
Experimental: as §1

[9] = molecular target: T9, TAOK2 (Homo sapiens, UniProt Q9UL54)
T9 construct: purchased Eurofins DiscoverX (KINOMEscan)
Experimental: as §1

[10] = molecular target: T10, EPHA5 (Homo sapiens, UniProt P54756)
T10 construct: purchased Eurofins DiscoverX (KINOMEscan)
Experimental: as §1

[11] = molecular target: T11, LIMK2 (Homo sapiens, UniProt P53671)
T11 construct: purchased Eurofins DiscoverX (KINOMEscan)
Experimental: as §1

[12] = molecular target: T12, PIP5K1C (Homo sapiens, UniProt O60331)
T12 construct: purchased Eurofins DiscoverX (KINOMEscan)
T12 sequence (O60331 whole entry): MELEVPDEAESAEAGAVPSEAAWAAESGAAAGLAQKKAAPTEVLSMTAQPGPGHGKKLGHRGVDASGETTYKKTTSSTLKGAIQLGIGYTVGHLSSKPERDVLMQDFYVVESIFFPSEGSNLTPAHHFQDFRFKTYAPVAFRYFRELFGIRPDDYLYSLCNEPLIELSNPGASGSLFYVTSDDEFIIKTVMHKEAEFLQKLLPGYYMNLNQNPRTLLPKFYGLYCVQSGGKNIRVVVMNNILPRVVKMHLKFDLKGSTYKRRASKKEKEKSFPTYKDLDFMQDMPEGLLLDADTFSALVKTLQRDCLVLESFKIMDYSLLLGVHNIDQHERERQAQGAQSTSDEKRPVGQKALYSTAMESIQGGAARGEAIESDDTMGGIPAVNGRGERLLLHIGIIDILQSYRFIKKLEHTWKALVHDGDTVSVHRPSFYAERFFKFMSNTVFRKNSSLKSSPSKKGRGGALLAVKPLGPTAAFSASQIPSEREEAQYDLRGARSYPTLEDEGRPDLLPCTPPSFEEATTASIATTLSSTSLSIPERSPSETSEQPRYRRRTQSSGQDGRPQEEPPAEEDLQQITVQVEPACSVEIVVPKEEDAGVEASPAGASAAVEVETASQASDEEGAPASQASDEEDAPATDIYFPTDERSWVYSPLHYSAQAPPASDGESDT
Experimental: as §1

[13] = molecular target: T13, DYRK1A (Homo sapiens, UniProt Q13627)
T13 construct: purchased Eurofins DiscoverX (KINOMEscan)
Experimental: as §1

[14] = molecular target: T14, CAMK1G (Homo sapiens, UniProt Q96NX5)
T14 construct: purchased Eurofins DiscoverX (KINOMEscan)
Experimental: as §1

[15] = molecular target: T15, TAK1 (Homo sapiens, UniProt O43318)
T15 construct: purchased Eurofins DiscoverX (KINOMEscan)
Experimental: as §1

[16] = molecular target: T16, NLK (Homo sapiens, UniProt Q9UBE8)
T16 construct: purchased Eurofins DiscoverX (KINOMEscan)
Experimental: as §1

[17] = molecular target: T17, DRAK2 (Homo sapiens, UniProt O94768)
T17 construct: purchased Eurofins DiscoverX (KINOMEscan)
Experimental: as §1

[18] = molecular target: T18, ERK2 (Homo sapiens, UniProt P28482)
T18 construct: purchased Eurofins DiscoverX (KINOMEscan)
Experimental: as §1

[19] = molecular target: T19, ABL1(Y253F)-phosphorylated (Homo sapiens, UniProt P00519, Y253F)
T19 construct: purchased Eurofins DiscoverX (KINOMEscan)
Experimental: as §1

[20] = molecular target: T20, PKN1 (Homo sapiens, UniProt Q16512)
T20 construct: purchased Eurofins DiscoverX (KINOMEscan)
Experimental: as §1

[21] = molecular target: T21, GRK2 (Homo sapiens, UniProt P25098)
T21 construct: purchased Eurofins DiscoverX (KINOMEscan)
Experimental: as §1

[22] = molecular target: T22, ULK2 (Homo sapiens, UniProt Q8IYT8)
T22 construct: purchased Eurofins DiscoverX (KINOMEscan)
Experimental: as §1

[23] = molecular target: T23, MEK2 (Homo sapiens, UniProt P36507)
T23 construct: purchased Eurofins DiscoverX (KINOMEscan)
Experimental: as §1

[24] = molecular target: T24, PRKCH (Homo sapiens, UniProt P24723)
T24 construct: purchased Eurofins DiscoverX (KINOMEscan)
T24 sequence (P24723 whole entry): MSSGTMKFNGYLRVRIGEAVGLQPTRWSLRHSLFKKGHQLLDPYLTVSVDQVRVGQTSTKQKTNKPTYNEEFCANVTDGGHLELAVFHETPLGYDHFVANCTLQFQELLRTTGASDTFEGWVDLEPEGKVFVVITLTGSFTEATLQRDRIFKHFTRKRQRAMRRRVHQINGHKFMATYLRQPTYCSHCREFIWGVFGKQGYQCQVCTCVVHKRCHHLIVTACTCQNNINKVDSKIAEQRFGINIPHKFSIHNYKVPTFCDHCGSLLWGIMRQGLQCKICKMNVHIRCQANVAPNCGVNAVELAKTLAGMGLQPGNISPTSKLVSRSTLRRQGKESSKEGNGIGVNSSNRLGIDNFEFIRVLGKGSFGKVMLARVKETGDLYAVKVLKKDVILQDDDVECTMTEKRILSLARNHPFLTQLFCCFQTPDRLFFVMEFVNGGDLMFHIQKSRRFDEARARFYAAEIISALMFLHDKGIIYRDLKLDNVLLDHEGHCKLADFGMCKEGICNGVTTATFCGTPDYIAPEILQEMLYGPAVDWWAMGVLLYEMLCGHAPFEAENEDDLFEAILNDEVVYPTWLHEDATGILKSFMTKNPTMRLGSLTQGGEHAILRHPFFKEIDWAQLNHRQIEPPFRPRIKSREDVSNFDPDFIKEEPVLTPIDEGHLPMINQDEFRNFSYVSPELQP
Experimental: as §1

[25] = molecular target: T25, PRKG2 (Homo sapiens, UniProt Q13237)
T25 construct: purchased Eurofins DiscoverX (KINOMEscan)
T25 sequence (Q13237 whole entry): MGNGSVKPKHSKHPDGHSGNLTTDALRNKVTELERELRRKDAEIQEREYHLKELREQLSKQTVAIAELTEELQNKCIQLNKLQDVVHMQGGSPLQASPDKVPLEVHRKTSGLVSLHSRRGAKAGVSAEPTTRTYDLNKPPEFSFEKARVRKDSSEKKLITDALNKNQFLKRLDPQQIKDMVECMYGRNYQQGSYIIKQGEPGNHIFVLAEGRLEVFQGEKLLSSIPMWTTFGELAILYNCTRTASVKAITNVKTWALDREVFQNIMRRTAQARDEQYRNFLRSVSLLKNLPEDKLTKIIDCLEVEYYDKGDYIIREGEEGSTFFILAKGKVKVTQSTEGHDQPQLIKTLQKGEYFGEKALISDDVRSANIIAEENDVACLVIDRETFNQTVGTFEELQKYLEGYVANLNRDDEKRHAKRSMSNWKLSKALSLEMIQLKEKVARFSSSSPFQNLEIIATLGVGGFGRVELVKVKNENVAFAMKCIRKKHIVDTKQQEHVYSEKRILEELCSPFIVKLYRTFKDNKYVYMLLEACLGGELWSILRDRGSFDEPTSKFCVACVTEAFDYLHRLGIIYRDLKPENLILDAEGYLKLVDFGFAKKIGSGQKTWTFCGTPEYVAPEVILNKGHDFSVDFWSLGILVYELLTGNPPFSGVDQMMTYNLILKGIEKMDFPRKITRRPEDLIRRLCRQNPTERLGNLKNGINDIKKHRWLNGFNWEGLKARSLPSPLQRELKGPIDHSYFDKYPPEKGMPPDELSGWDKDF
Experimental: as §1

[26] = molecular target: T26, SRC (Homo sapiens, UniProt P12931)
T26 construct: purchased Eurofins DiscoverX (KINOMEscan)
Experimental: as §1

[27] = molecular target: T27, EGFR(L747-S752del, P753S) (Homo sapiens, UniProt P00533, DEL747-752/P753S)
T27 construct: purchased Eurofins DiscoverX (KINOMEscan)
Experimental: as §1

[28] = molecular target: T28, ABL1(M351T)-phosphorylated (Homo sapiens, UniProt P00519, M351T)
T28 construct: purchased Eurofins DiscoverX (KINOMEscan)
Experimental: as §1

[29] = molecular target: T29, PIKFYVE (Homo sapiens, UniProt Q9Y2I7)
T29 construct: purchased Eurofins DiscoverX (KINOMEscan)
Experimental: as §1

[30] = molecular target: T30, RSK2(Kin.Dom.2-C-terminal) (Homo sapiens, UniProt P51812)
T30 construct: RSK2(Kin.Dom.2-C-terminal); purchased Eurofins DiscoverX (KINOMEscan)
Experimental: as §1

[31] = molecular target: T31, HIPK1 (Homo sapiens, UniProt Q86Z02)
T31 construct: purchased Eurofins DiscoverX (KINOMEscan)
Experimental: as §1

[32] = molecular target: T32, MLCK (Homo sapiens, UniProt Q32MK0)
T32 construct: purchased Eurofins DiscoverX (KINOMEscan)
T32 sequence (Q32MK0 whole entry): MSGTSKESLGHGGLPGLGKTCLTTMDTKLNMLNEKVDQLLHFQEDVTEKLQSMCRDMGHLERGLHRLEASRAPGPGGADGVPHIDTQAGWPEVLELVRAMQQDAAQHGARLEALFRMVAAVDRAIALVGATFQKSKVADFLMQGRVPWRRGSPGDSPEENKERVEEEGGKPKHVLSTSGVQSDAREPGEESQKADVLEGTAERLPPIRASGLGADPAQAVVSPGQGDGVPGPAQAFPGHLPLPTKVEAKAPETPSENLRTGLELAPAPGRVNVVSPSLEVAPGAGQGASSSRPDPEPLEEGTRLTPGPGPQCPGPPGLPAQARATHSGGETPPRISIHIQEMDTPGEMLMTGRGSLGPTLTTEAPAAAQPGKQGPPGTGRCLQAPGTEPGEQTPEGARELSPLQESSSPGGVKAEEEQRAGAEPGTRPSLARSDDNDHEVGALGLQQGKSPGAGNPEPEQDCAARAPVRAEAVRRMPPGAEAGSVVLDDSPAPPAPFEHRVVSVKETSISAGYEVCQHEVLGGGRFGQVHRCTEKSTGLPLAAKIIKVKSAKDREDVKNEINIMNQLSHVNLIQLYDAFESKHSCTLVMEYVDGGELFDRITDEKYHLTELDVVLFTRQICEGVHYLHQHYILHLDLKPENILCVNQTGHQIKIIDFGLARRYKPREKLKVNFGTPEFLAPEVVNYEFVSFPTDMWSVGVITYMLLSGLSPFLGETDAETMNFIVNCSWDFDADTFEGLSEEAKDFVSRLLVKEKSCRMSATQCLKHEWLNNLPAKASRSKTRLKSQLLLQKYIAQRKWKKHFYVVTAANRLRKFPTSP
Experimental: as §1

[33] = molecular target: T33, NEK1 (Homo sapiens, UniProt Q96PY6)
T33 construct: purchased Eurofins DiscoverX (KINOMEscan)
Experimental: as §1

[34] = molecular target: T34, SIK (Homo sapiens, UniProt P57059)
T34 construct: purchased Eurofins DiscoverX (KINOMEscan)
T34 sequence (P57059 whole entry): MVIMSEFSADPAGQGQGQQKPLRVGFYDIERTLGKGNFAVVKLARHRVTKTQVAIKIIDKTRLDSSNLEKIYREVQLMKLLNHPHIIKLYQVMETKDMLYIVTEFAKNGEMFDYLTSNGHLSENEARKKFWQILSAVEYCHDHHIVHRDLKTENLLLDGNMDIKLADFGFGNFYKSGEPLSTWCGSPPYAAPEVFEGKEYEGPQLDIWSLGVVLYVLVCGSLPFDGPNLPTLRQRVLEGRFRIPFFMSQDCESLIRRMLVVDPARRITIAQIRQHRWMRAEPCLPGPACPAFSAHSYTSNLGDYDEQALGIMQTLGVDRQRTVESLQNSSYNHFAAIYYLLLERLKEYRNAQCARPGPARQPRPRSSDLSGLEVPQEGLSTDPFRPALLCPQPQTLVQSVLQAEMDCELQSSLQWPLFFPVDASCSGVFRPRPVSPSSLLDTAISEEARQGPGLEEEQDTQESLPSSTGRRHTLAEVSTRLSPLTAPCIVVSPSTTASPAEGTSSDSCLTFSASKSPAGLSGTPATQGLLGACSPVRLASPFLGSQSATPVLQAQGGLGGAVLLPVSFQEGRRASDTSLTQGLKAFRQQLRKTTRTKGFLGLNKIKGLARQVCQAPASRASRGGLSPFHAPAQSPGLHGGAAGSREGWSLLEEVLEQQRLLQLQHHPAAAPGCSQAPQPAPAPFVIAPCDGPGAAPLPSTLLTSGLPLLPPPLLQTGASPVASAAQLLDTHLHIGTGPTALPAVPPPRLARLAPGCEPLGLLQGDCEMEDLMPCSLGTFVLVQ
Experimental: as §1

[35] = molecular target: T35, PRKCI (Homo sapiens, UniProt P41743)
T35 construct: purchased Eurofins DiscoverX (KINOMEscan)
Experimental: as §1

[36] = molecular target: T36, PRKR (Homo sapiens, UniProt P19525)
T36 construct: purchased Eurofins DiscoverX (KINOMEscan)
Experimental: as §1

[37] = molecular target: T37, LRRK2 (Homo sapiens, UniProt Q5S007)
T37 construct: purchased Eurofins DiscoverX (KINOMEscan)
Experimental: as §1

[38] = molecular target: T38, SGK2 (Homo sapiens, UniProt Q9HBY8)
T38 construct: purchased Eurofins DiscoverX (KINOMEscan)
Experimental: as §1

[39] = molecular target: T39, PRKD2 (Homo sapiens, UniProt Q9BZL6)
T39 construct: purchased Eurofins DiscoverX (KINOMEscan)
Experimental: as §1

[40] = molecular target: T40, PKAC-alpha (Homo sapiens, UniProt P17612)
T40 construct: purchased Eurofins DiscoverX (KINOMEscan)
Experimental: as §1

[41] = molecular target: T41, BRSK1 (Homo sapiens, UniProt Q8TDC3)
T41 construct: purchased Eurofins DiscoverX (KINOMEscan)
Experimental: as §1

[42] = molecular target: T42, JAK2(JH1domain-catalytic) (Homo sapiens, UniProt O60674)
T42 construct: JAK2(JH1domain-catalytic); purchased Eurofins DiscoverX (KINOMEscan)
T42 sequence (O60674 840-1132 limits assumed): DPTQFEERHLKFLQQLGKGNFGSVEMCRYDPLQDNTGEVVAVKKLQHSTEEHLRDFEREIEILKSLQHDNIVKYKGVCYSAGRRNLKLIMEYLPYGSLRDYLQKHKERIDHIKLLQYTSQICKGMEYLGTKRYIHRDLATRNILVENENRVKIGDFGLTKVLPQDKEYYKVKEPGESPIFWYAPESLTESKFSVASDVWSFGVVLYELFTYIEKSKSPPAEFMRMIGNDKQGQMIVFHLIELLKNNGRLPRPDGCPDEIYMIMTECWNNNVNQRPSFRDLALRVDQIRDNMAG
Experimental: as §1

## Brc1ccc2nccc(Nc3ccc4cn[nH]c4c3)c2c1 [Compound 35, 6-Bromo-N-(1H-indazol-6-yl)quinolin-4-amine]
[1]
  activity at 1 µM: 100%
[2]
  activity at 1 µM: 99%
[3]
  activity at 1 µM: 100%
[4]
  activity at 1 µM: 99%
[5]
  activity at 1 µM: 100%
[6]
  activity at 1 µM: 100%
[7]
  activity at 1 µM: 100%
[8]
  activity at 1 µM: 100%
[9]
  activity at 1 µM: 91%
[10]
  activity at 1 µM: 100%
[11]
  activity at 1 µM: 100%
[12]
  activity at 1 µM: 95%
[13]
  activity at 1 µM: 77%
[14]
  activity at 1 µM: 100%
[15]
  activity at 1 µM: 100%
[16]
  activity at 1 µM: 100%
[17]
  activity at 1 µM: 100%
[18]
  activity at 1 µM: 100%
[19]
  activity at 1 µM: 100%
[20]
  activity at 1 µM: 100%
[21]
  activity at 1 µM: 100%
[22]
  activity at 1 µM: 94%
[23]
  activity at 1 µM: 50%
[24]
  activity at 1 µM: 100%
[25]
  activity at 1 µM: 100%
[26]
  activity at 1 µM: 97%
[27]
  activity at 1 µM: 66%
[28]
  activity at 1 µM: 100%
[29]
  activity at 1 µM: 100%
[30]
  activity at 1 µM: 100%
[31]
  activity at 1 µM: 53%
[32]
  activity at 1 µM: 100%
[33]
  activity at 1 µM: 100%
[34]
  activity at 1 µM: 100%
[35]
  activity at 1 µM: 60%
[36]
  activity at 1 µM: 100%
[37]
  activity at 1 µM: 100%
[38]
  activity at 1 µM: 96%
[39]
  activity at 1 µM: 90%
[40]
  activity at 1 µM: 98%
[41]
  activity at 1 µM: 100%
[42]
  activity at 1 µM: 98%
